Reference: PMC6028453, “BrlR from Pseudomonas aeruginosa is a receptor for both cyclic di-GMP and pyocyanin” (Nature Communications, 2018)

How the values were obtained:
BrlR mutant D35A = target: T1, BrlR mutant D35A (Pseudomonas aeruginosa, UniProt Q9HUT5, D35A); test: FP binding assay, BrlR D35A
T1 construct: His6-SUMO (N, cleaved yes); made in house; host or cells: E. coli BL21 DE3
Method: F-c-di-GMP and F-c-di-AMP both contain a fluorophore at one of the 2′-ribose hydroxyls of c-di-GMP and c-di-AMP, respectively (Fig. 2f). To measure the binding of c-di-GMP and c-di-AMP to BrlR variants, 1 nM F-c-di-GMP or F-c-di-AMP was incubated with increasing amounts of indicated BrlR WT, BrlR mutation, or BrlR-C in reaction buffer (25 mM HEPES, 100 mM NaCl, pH 7.5) at 25 °C for 20 min. 1 nM fluorescein was incubated with BrlR WT in the same reaction buffer at 25 °C. FP measurements were conducted on a Synergy 4 Microplate Reader (BioTek) at 25 °C. All experiments were performed in triplicate. The curves were fitted to deduce binding affinities by GraphPad Prism 5.
BrlR–c-di-GMPs interactions in two separate c-di-GMP binding sites
In the first binding site, c-di-GMP is half accommodated by the antiparallel β-sheet and two residues (M1 and D35). In detail, the backbone amide protons of the first M1 residue form a hydrogen bond (H-bond) with the phosphate oxygen atom of c-di-GMP, and the side chain of R31 forms two H-bonds with the Gua1 base. The residue D35 also forms an H-bond with the Gua1 base. The aromatic ring of Y40 interacts with the Gua1 base through a hydrophobic π-π interaction. In addition, the hydroxyl group of the Y270 side chain from another subunit interacts with the phosphate 2 of c-di-GMP via an H-bond (Fig. 2d). […]

[1] = tested on: brlR promoter activity (wild-type BrlR); test: β-galactosidase assay, PbrlR-brlR-lacZ reporter, wild-type BrlR; assay type: cell-based, Pseudomonas aeruginosa; conditions: ΔbrlR strain, pHERD20T-PA4843 vs pHERD20T
Method: (§1) We also performed β-galactosidase activity assays using a PbrlR-brlR-lacZ reporter construct to investigate the transcriptional function of BrlR mutants in vivo. […] To confirm the effect of c-di-GMP in P. aeruginosa, we carried out real-time quantitative PCR analyses. Following a previous report, we introduced the diguanylate cyclase PA4843 into a WT P. aeruginosa strain carrying either pHERD20T-empty or pHERD20T-PA4843. The transcription level of brlR was analyzed using the brlR 5 F and brlR 3 R primers (Supplementary Table 1). The transcriptional level of brlR in pHERD20T-PA4843 strain is 4.5 ± 1.3-fold higher than that in the pHERD20T-empty strain (Fig. 4h).
(§2) β-galactosidase activity was assayed with P. aeruginosa PA01 ΔbrlR strain carrying plasmid pME6522-borne transcriptional lacZ fusions. P. aeruginosa carrying the empty vector was used as the […]. The reporter plasmids are derivatives of the pME6522 plasmid in which multiple cloning sites were inserted before the LacZ with the promoter and coding regions of brlR with diverse mutations. These reporter plasmids were transformed into the reporter strain. Overnight cultures were diluted 20-fold with LB medium supplemented with appropriate antibiotics. […]

BrlR Y270A DNA binding = target: T2, BrlR Y270A DNA binding (Pseudomonas aeruginosa, UniProt Q9HUT5, Y270A); test: EMSA, BrlR Y270A; assay type: biochemical
T2 construct: His6-SUMO (N, cleaved yes); made in house; host or cells: E. coli BL21 DE3
Method: (§3) A 6-carboxy-fluorescein (FAM)-labeled 36-bp brlR promoter DNA (PbrlR) or 80-bp mexA/mexE promoter DNA (PmexA/PmexE) probes (~0.375 pmol), BrlR protein and varying amounts of inducers were incubated in binding buffer (10 mM Tris HCl [pH 7.4], 50 mM KCl, 1 mM DTT, […] and 5 ng/mL poly [dI-dC]) for 60 min at 25 °C. Finally, glycerol was added to a concentration of 6.5%. The samples were subjected to a 5% polyacrylamide gel electrophoresis and run in 0.5 × Tris-borate-EDTA buffer at 80 V for 1 h at room temperature. Imaging and data analyses were performed using a Typhoon Scanner (GE Healthcare) and Imagequant software. The probes used are listed in Supplementary Table 1.

[2] = tested on: brlR promoter activity (C2E mut2); test: β-galactosidase assay, C2E mut2; assay type: cell-based, Pseudomonas aeruginosa
Method: as §1, §2

[3] = target: T3, C2E mut3 (R31A/D35A/Y40A/R67A/R86A/Y270A) DNA binding (Pseudomonas aeruginosa, UniProt Q9HUT5, D35A/R31A/R67A/R86A/Y270A/Y40A); test: EMSA, C2E mut3; assay type: biochemical
T3 construct: His6-SUMO (N, cleaved yes); made in house; host or cells: E. coli BL21 DE3
Method: as §3

BrlR Y40A DNA binding = target: T4, BrlR Y40A DNA binding (Pseudomonas aeruginosa, UniProt Q9HUT5, Y40A); test: EMSA, BrlR Y40A; assay type: biochemical
T4 construct: His6-SUMO (N, cleaved yes); made in house; host or cells: E. coli BL21 DE3
Method: as §3

BrlR R67A DNA binding = target: T5, BrlR R67A DNA binding (Pseudomonas aeruginosa, UniProt Q9HUT5, R67A); test: EMSA, BrlR R67A; assay type: biochemical
T5 construct: His6-SUMO (N, cleaved yes); made in house; host or cells: E. coli BL21 DE3
Method: as §3

BrlR D35A DNA binding = target: T6, BrlR D35A DNA binding (Pseudomonas aeruginosa, UniProt Q9HUT5, D35A); test: EMSA, BrlR D35A; assay type: biochemical
T6 construct: His6-SUMO (N, cleaved yes); made in house; host or cells: E. coli BL21 DE3
Method: as §3

T3 sequence (Q9HUT5 whole entry R31A/D35A/Y40A/R67A/R86A/Y270A): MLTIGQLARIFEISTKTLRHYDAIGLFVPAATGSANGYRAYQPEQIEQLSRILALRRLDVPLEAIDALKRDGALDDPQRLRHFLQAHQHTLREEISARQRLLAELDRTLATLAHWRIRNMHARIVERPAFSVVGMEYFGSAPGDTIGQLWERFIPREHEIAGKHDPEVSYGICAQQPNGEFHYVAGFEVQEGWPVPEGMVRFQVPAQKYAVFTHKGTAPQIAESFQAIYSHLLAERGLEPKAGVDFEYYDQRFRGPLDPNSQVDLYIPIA
T1 sequence (Q9HUT5 whole entry D35A): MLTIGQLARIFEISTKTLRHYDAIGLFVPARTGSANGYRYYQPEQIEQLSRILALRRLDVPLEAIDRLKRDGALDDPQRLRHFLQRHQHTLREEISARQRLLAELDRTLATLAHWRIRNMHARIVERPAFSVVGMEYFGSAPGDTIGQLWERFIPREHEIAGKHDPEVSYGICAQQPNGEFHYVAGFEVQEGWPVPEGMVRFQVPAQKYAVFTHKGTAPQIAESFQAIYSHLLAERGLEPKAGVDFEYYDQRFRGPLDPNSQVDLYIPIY
T6 sequence (Q9HUT5 whole entry D35A): as above
T2 sequence (Q9HUT5 whole entry Y270A): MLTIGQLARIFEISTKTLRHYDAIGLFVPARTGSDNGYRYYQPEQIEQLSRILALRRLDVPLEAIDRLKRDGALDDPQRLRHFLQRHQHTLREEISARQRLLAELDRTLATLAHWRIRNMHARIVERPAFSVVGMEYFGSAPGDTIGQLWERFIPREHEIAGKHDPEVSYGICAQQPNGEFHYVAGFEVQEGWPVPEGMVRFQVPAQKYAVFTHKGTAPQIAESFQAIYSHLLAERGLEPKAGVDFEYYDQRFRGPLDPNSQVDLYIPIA
T5 sequence (Q9HUT5 whole entry R67A): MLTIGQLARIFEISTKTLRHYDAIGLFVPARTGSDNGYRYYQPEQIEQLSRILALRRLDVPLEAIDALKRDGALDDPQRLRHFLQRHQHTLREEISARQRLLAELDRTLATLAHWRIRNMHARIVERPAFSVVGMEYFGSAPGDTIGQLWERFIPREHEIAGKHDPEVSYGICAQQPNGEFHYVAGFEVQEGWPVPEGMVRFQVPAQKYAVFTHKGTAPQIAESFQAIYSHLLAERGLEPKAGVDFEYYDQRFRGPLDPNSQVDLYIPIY
T4 sequence (Q9HUT5 whole entry Y40A): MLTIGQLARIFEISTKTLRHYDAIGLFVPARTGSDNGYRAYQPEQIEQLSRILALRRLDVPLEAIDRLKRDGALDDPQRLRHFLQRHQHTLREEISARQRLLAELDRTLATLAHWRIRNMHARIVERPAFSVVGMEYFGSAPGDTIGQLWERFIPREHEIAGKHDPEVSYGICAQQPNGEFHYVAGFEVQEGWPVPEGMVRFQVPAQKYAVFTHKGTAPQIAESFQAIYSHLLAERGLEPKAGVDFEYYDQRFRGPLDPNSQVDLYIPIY

Nc1nc2c(ncn2[C@@H]2O[C@@H]3COP(=O)(O)O[C@H]4[C@@H](O)[C@H](n5cnc6c(=O)[nH]c(N)nc65)O[C@@H]4COP(=O)(O)O[C@H]3[C@H]2O)c(=O)[nH]1 [c-di-GMP, cyclic diguanylate monophosphate] was tested, and the Kd (BrlR mutant D35A) was 17.5 ± 0.9 µM, the “increase at high vs low c-di-GMP concentration (β-galactosidase activity)” value [1] was 3.3 fold and the “DNA bound in the presence vs absence of c-di-GMP” value (BrlR Y270A DNA binding) was ~ 3.4 fold. For the same compound, the “increase at high vs low c-di-GMP concentration (β-galactosidase activity)” value [2] was 2.2 fold, the “effect of c-di-GMP on DNA binding” value [3] was “did not have any effect” and the “DNA bound in the presence vs absence of c-di-GMP” value (BrlR Y40A DNA binding) was ~ 1.1 fold. For the same compound, the “DNA bound in the presence vs absence of c-di-GMP” value (BrlR R67A DNA binding) was ~ 5.2 fold and the “DNA bound in the presence vs absence of c-di-GMP” value (BrlR D35A DNA binding) was ~ 4.8 fold.
